Laboratory results reported in ChEMBL document CHEMBL1157885, “The discovery and structure-activity relationships of 2-(piperidin-3-yl)-1H-benzimidazoles as selective, CNS penetrating H1-antihistamines for insomnia” (Bioorg Med Chem Lett, 2010).

Experiments:
Cytochrome P450 3A4 = Cytochrome P450 3A4 (Homo sapiens, UniProt P08684); assay: (§1) Inhibition of CYP3A4; type: ADME
[1] = molecular target: T1, Voltage-gated inwardly rectifying potassium channel KCNH2 (Homo sapiens, UniProt Q12809); assay: Displacement of [3H]dofetolide from human ERG channel expressed in HEK293 cells by liquid scintillation counting; type: cell-based
T1 sequence (Q12809 whole entry): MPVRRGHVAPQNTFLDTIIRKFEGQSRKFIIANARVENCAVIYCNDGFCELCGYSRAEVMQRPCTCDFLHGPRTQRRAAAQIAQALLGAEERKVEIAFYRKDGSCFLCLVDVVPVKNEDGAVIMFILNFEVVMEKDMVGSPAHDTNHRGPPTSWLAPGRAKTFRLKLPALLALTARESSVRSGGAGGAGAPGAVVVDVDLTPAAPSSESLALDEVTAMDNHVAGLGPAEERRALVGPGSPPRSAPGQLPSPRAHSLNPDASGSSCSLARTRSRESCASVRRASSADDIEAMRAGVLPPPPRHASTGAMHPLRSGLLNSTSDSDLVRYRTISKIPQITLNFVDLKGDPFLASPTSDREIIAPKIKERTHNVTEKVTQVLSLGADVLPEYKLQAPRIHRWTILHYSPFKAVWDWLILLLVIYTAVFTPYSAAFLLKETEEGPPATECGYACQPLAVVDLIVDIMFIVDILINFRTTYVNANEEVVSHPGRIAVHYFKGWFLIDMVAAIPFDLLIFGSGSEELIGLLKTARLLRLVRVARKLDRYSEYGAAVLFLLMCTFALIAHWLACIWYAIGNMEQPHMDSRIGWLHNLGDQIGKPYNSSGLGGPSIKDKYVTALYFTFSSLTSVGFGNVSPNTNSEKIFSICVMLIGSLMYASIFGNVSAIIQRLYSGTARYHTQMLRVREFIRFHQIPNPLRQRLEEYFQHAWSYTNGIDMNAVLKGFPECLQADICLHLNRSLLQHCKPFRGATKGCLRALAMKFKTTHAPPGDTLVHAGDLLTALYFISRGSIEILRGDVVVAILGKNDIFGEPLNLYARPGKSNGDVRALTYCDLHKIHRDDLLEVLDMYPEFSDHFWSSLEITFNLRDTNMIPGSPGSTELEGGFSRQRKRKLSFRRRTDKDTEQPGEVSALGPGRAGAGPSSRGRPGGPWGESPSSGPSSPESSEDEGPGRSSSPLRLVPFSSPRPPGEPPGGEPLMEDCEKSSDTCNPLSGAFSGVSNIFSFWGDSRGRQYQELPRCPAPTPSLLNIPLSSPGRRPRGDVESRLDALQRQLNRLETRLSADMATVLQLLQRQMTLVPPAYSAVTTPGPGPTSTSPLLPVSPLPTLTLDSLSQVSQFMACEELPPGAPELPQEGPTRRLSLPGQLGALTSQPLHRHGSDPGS

[2] = molecular target: T1, Voltage-gated inwardly rectifying potassium channel KCNH2; assay: Inhibition of human ERG channel by patch clamp assay
Histamine H1 receptor = Histamine H1 receptor (Homo sapiens, UniProt P35367); assay: Displacement of [3H]pyrilamine from human histamine H1 receptor expressed in CHO Flp-In cells by liquid scintillation counting; type: cell-based
Sequence of Histamine H1 receptor (P35367 whole entry): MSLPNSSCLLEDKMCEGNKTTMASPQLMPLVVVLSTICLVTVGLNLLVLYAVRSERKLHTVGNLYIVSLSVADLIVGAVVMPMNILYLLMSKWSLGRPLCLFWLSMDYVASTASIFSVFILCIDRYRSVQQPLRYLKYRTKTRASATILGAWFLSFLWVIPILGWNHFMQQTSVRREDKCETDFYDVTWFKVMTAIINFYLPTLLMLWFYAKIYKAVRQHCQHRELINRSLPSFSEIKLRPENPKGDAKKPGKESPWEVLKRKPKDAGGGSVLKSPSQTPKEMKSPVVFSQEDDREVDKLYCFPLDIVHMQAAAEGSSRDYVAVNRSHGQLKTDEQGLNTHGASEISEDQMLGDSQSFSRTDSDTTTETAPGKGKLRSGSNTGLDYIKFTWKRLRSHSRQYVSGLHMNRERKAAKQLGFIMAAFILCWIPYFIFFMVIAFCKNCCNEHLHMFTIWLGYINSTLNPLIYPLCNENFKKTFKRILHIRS

[3] = molecular target: T2, Muscarinic acetylcholine receptor M1 (Homo sapiens, UniProt P11229); assay: Displacement of [3H]N-methyl Scopolamine from human muscarinic M1 receptor expressed in CHO Flp-In cells by liquid scintillation counting; type: cell-based
T2 sequence (P11229 whole entry): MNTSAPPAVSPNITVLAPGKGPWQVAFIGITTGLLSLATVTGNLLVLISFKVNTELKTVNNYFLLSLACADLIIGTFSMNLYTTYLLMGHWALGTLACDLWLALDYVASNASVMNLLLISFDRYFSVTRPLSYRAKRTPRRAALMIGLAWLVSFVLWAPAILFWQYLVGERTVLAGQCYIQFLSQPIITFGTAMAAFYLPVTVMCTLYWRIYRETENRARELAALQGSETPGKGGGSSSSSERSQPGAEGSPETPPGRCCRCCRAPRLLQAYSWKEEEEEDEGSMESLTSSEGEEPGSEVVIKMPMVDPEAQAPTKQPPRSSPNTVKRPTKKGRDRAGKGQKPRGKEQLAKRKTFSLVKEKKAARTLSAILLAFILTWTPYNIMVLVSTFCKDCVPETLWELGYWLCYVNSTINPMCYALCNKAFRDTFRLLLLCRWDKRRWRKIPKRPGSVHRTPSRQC

Cytochrome P450 2D6 = Cytochrome P450 2D6 (Homo sapiens, UniProt P10635); assay: Inhibition of CYP2D6; type: ADME
Sequence of Cytochrome P450 2D6 (P10635 whole entry): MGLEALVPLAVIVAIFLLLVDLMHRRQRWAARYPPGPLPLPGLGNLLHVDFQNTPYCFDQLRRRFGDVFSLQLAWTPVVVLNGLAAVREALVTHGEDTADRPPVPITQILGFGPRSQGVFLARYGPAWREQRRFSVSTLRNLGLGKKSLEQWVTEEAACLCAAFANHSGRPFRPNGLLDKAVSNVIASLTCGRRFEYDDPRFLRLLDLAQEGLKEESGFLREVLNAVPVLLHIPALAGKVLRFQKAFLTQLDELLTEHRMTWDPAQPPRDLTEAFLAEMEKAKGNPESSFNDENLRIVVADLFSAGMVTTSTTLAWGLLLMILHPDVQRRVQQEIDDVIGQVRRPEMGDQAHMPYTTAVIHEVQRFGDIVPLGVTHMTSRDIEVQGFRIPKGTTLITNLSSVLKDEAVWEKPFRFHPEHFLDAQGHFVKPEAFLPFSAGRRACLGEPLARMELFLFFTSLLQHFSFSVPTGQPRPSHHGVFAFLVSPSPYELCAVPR

[4] = molecular target: T1, Voltage-gated inwardly rectifying potassium channel KCNH2; assay: Inhibition of human ERG channel by electrophysiology assay
Liver microsomes = assay: Metabolic stability in human liver microsomes; type: ADME, Microsome
[5] = Solubility in 0.15 M KCl buffer at pH 7.4 by potentiometric method; type: physicochemical
CYP3A4 = CYP3A4 (Homo sapiens, UniProt P08684); assay: as §1; type: ADME
Sequence of CYP3A4 (P08684 whole entry): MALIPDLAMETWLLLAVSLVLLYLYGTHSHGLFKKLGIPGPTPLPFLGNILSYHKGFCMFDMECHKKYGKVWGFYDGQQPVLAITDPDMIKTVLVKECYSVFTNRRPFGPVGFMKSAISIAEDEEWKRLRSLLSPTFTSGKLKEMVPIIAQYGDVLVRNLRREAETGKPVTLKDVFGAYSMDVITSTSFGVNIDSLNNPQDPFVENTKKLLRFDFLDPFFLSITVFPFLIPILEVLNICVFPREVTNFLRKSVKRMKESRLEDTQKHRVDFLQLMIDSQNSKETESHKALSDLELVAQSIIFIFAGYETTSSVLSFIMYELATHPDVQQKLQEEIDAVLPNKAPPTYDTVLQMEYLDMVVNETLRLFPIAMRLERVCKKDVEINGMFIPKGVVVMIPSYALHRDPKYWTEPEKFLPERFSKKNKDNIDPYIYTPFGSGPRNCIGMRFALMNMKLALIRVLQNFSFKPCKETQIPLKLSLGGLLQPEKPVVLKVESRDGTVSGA

hERG (KCNH2) = hERG (KCNH2) (Homo sapiens, UniProt Q12809); assay: Inhibition of human ERG channel at 10 uM by patch clamp assay
Sequence of hERG (KCNH2) (Q12809 whole entry): as the sequence (Q12809 whole entry) above

Sequence of Cytochrome P450 3A4 (P08684 whole entry): as the sequence (P08684 whole entry) above

Structure (SMILES)	IC50 (Cytochrome P450 3A4) [µM]	Ki [1] [µM]	also measured
COc1ccc(Cn2c(C3CCCN(C)C3)nc3ccccc32)cc1 (configuration not stated)	> 5	> 5	–
CN1CCCC(c2nc3ccccc3n2Cc2ccccn2)C1 (configuration not stated)	> 5	> 10	–
CCOCCn1c([C@@H]2CCCN(C3CCOCC3)C2)nc2ccccc21	–	> 3	inhibition (INH) (Cytochrome P450 3A4): Not Active; IC50 [2]: 2.1 µM
Cc1csc(Cn2c(C3CCCN(C)C3)nc3ccccc32)n1 (configuration not stated)	> 5	> 10	–
CCOCCn1c(C2CCCN(C3CCOCC3)C2)nc2ccccc21 (configuration not stated)	> 5	> 3	–
CN1CCCC(c2nc3ccccc3n2CCOc2ccccc2)C1 (configuration not stated)	> 5	–	–
CCOCCn1c(C2CCCN(C)C2)nc2ccccc21 (configuration not stated)	> 5	–	–
CC(C)N1CCCC(c2nc3ccccc3n2Cc2ccc(F)cc2)C1 (configuration not stated)	> 5	1.37	–
Fc1ccc(Cn2c(C3CCCN(C4CCCCC4)C3)nc3ccccc32)cc1 (configuration not stated)	> 5	0.926	–
COc1ccc(Cn2c(N3CC[C@@H](N(C)C)C3)nc3ccccc32)cc1	> 5	–	Ki (Histamine H1 receptor): 0.0084 µM; Ki [3]: 2.5 µM; IC50 (Cytochrome P450 2D6): > 10 µM; IC50 [4]: 0.233 µM; Stability (Liver microsomes): Stable
COc1ccc(Cn2c(C3CCCN(C4CCCCC4)C3)nc3ccccc32)cc1 (configuration not stated)	–	1.84	–
Cc1cnn(C2CCN(c3nc4ccccc4n3Cc3ccc(F)cc3)CC2)c1	–	–	solubility [5]: < 10 µg/mL
CN1CCCC(c2nc3ccccc3n2CC2CCCO2)C1 (configuration not stated)	> 5	0.638	–
CN1CCC[C@H](c2nc3ccccc3n2Cc2ccccn2)C1	–	> 10	inhibition (INH) (Cytochrome P450 3A4): Not Active
CN(CC1CCOCC1)C1CCN(c2nc3ccccc3n2Cc2ccc(F)cc2)CC1	–	–	Ki [3]: 4.8 µM; IC50 (CYP3A4): > 5 µM
CCOCCn1c([C@@H]2CCCN(C)C2)nc2ccccc21	–	–	inhibition (INH) (Cytochrome P450 3A4): Not Active
Cc1csc(Cn2c(C3CCCN(C4CCOCC4)C3)nc3ccccc32)n1 (configuration not stated)	> 5	> 3	–
COc1ccc(Cn2c(C3CCCN(C(C)C)C3)nc3ccccc32)cc1 (configuration not stated)	> 5	2.65	–
CN1CCC[C@@H](c2nc3ccccc3n2Cc2ccccn2)C1	–	10.3	inhibition (INH) (Cytochrome P450 3A4): Not Active; inhibition at 10 µM (hERG (KCNH2)): 39%
Cc1csc(Cn2c(C3CCCN(C4CCCCC4)C3)nc3ccccc32)n1 (configuration not stated)	> 5	1.18	–
CCOCCn1c(N2CC[C@H](N(C)C)C2)nc2ccccc21	> 5	–	Ki (Histamine H1 receptor): 0.0048 µM; Ki [3]: 1.5 µM; IC50 (Cytochrome P450 2D6): > 10 µM; IC50 [4]: 0.021 µM; Stability (Liver microsomes): Stable
COc1ccc(Cn2c(C3CCCN(C4CCOCC4)C3)nc3ccccc32)cc1 (configuration not stated)	> 5	> 10	–
CCOCCn1c(C2CCCN(C3CCCCC3)C2)nc2ccccc21 (configuration not stated)	> 5	> 10	–
CCOCCn1c([C@H]2CCCN(C)C2)nc2ccccc21	–	–	inhibition (INH) (Cytochrome P450 3A4): Not Active
